Test results published in ChEMBL document CHEMBL4699602, “Stapled and Xenopus Glucagon-Like Peptide 1 (GLP-1)-Based Dual GLP-1/Gastrin Receptor Agonists with Improved Metabolic Benefits in Rodent Models of Obesity and Diabetes” (J Med Chem, 2020).
The source made the active and inactive calls. No cut-off for these calls is given here. Where a SMILES comes first, the peptide text is derived from it.

How the values were obtained:
serum albumin = serum albumin (Homo sapiens, UniProt P02768); assay: Binding affinity to human serum albumin in PBS pH 7.4 at 100 ug/mL incubated for 2 hrs by LC-MS/MS analysis relative to control; format: ADME; settings: at 100 µg/mL, read-out: PB (converted)
Mus musculus [1] = assay: Reduction in body weight in C57BL/6 mouse model of diet induced obesity at 25 nmol/kg, sc BID for 1 week relative to control; format: functional; set-up: scale not given: the % may be the effect or the level left; settings: time 1 weeks
Mus musculus [2] = assay: Reduction in food intake in C57BL/6 mouse model of diet induced obesity at 25 nmol/kg, sc BID for 1 week relative to control; format: functional, organism-based; settings: time 1.0 weeks
[3] = biological target: T1, Glucagon-like peptide 1 receptor (Homo sapiens, UniProt P43220); assay: Agonist activity at human GLP-1R expressed in HEK293 cells assessed as stimulation of cAMP accumulation incubated for 20 mins in presence of 0% HSA; format: functional, cell-based
[4] = biological target: T1, Glucagon-like peptide 1 receptor; assay: Agonist activity at human GLP-1R expressed in HEK293 cells assessed as stimulation of cAMP accumulation incubated for 20 mins in presence of 4.4% HSA; format: functional, cell-based
Mus musculus [5] = assay: Reduction in fasted hyperglycemia in C57BL/6 mouse model of diet induced obesity at 25 nmol/kg, sc BID for 1 week relative to control; format: functional, organism-based; settings: time 1.0 weeks
Mus musculus [6] = assay: Hypoglycemic activity in non-fasted db/db mouse assessed as decrease in blood glucose concentration at 25 nmol/kg, sc by OGTT method; format: functional, organism-based
[7] = biological target: T1, Glucagon-like peptide 1 receptor; assay: Ratio of EC50 for agonist activity at human GLP-1R expressed in HEK293 cells in presence of 4.4% HSA to EC50 for agonist activity at human GLP-1R expressed in HEK293 cells in presence of 0% HSA; format: cell-based

T1 sequence (P43220 whole entry): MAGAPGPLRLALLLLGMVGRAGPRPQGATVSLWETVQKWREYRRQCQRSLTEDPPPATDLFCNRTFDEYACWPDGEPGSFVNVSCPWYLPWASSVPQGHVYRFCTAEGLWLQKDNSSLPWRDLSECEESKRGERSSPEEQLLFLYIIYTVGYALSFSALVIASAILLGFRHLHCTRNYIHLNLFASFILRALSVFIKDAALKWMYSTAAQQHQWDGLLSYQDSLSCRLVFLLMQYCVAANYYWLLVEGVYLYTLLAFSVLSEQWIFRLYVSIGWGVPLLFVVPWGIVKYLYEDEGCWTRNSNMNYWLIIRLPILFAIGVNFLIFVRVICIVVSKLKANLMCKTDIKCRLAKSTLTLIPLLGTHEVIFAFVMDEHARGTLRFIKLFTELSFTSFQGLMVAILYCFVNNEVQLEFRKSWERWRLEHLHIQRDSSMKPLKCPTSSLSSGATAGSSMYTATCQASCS
Sequence of serum albumin (P02768 whole entry): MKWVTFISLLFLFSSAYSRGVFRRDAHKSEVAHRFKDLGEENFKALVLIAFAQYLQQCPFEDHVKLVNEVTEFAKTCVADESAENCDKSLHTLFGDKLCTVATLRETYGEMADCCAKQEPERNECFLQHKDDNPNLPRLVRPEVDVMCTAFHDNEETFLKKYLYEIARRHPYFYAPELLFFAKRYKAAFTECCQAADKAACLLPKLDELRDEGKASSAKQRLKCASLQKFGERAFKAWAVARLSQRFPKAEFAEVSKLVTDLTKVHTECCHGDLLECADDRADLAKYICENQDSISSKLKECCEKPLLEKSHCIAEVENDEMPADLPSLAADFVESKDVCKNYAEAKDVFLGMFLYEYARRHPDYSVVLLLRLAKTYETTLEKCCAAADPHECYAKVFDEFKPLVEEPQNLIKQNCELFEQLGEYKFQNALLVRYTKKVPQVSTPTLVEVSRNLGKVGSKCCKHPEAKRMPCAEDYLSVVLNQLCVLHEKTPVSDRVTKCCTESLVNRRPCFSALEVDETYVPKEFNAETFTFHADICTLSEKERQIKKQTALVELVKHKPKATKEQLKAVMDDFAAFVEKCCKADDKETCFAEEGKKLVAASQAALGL

Compound	fraction unbound at 2 h, 100 ug/mL (serum albumin)	Activity (Mus musculus [1]) [%]	Activity (Mus musculus [2])	EC50 [3] [nM]	EC50 [4] [nM]	Activity (Mus musculus [5])	Activity (Mus musculus [6])	Ratio EC50 [7]
CCCCCCCCCCCCCCCC(=O)NCCCCCCNC(=O)C1CCCCNC(=O)CCN2C(=O)CC(SC[C@H](NC(=O)[C@H](Cc3ccc(O)cc3)NC(=O)[C@H](CCC(=O)O)NC(=O)[C@@H](NC(=O)[C@@H](NC(=O)[C@H](CC(=O)O)NC(=O)[C@H](CC(N)=O)NC(=O)[C@@H](NC(=O)[C@H](Cc3ccc(O)cc3)NC(=O)[C@@H](NC(=O)CNC(=O)[C@H](CCC(=O)O)NC(=O)C(C)(C)NC(=O)[C@@H](N)Cc3c[nH]cn3)[C@@H](C)O)[C@@H](C)O)C(C)C)[C@@H](C)O)C(=O)N[C@@H](CCC(=O)O)C(=O)N[C@@H](CCC(=O)O)C(=O)N[C@@H](CCC(=O)O)C(=O)N[C@@H](C)C(=O)N[C@@H](C)C(=O)N[C@@H](CCCCN)C(=O)N[C@H](C(=O)N[C@@H](Cc3ccccc3)C(=O)N[C@H](C(=O)N[C@@H](CCC(=O)O)C(=O)N[C@@H](Cc3c[nH]c4ccccc34)C(=O)N[C@@H](CC(C)C)C(=O)N[C@H](C(=O)N[C@@H](CCCCN)C(=O)NCC(=O)N[C@@H](CCCCN)C(=O)N3CCC[C@H]3C(=O)N[C@@H](CO)C(=O)N[C@@H](CO)C(=O)NCC(=O)N[C@@H](C)C(=O)N3CCC[C@H]3C(=O)N3CCC[C@H]3C(=O)N3CCC[C@H]3C(=O)N[C@@H](CO)C(N)=O)[C@@H](C)CC)[C@@H](C)CC)CSC3CC(=O)N(CCC(=O)N1)C3=O)C2=O (stereo partly specified) (HELM PEPTIDE1{H.[Aib].E.G.T.Y.T.N.D.V.T.E.Y.C.E.E.E.A.A.K.C.F.I.E.W.L.I.K.G.K.P.S.S.G.A.P.P.P.S.[am]}|CHEM1{[CCCCCCCCCCCCCCCC(=O)NCCCCCCNC(=O)C(CCCCNC(=O)CCN1C(=O)CC([*:1])C1=O)NC(=O)CCN1C(=O)CC([*:2])C1=O]}$PEPTIDE1,CHEM1,14:R3-1:R1|PEPTIDE1,CHEM1,21:R3-1:R2$$$V2.0)	0.162	14.4	Active	0.041	0.91	Active	Active	22.2
CCCCCCCCCCCCCCCC(=O)NCCCCCCNC(=O)C1CCCCNC(=O)CCN2C(=O)CC(SC[C@H](NC(=O)[C@H](CCCCN)NC(=O)[C@H](C)NC(=O)[C@H](C)NC(=O)[C@H](CCC(=O)O)NC(=O)[C@H](CCC(=O)O)NC(=O)[C@H](CCC(=O)O)NC(=O)[C@H](CC(C)C)NC(=O)[C@H](Cc3ccc(O)cc3)NC(=O)[C@H](CCC(=O)O)NC(=O)[C@@H](NC(=O)[C@@H](NC(=O)[C@H](CC(=O)O)NC(=O)[C@H](CC(N)=O)NC(=O)[C@@H](NC(=O)[C@H](Cc3ccc(O)cc3)NC(=O)[C@@H](NC(=O)CNC(=O)[C@H](CCC(=O)O)NC(=O)C(C)(C)NC(=O)[C@@H](N)Cc3c[nH]cn3)[C@@H](C)O)[C@@H](C)O)C(C)C)[C@@H](C)O)C(=O)N[C@@H](Cc3ccccc3)C(=O)N[C@@H]([C@@H](C)CC)C(=O)N[C@@H](CCC(=O)O)C(=O)N[C@@H](Cc3c[nH]c4ccccc34)C(=O)N[C@@H](CC(C)C)C(=O)N[C@@H]([C@@H](C)CC)C(=O)N[C@H](C(=O)NCC(=O)N[C@@H](CCCCN)C(=O)N3CCC[C@H]3C(=O)N[C@@H](CO)C(=O)N[C@@H](CO)C(=O)NCC(=O)N[C@@H](C)C(=O)N3CCC[C@H]3C(=O)N3CCC[C@H]3C(=O)N3CCC[C@H]3C(=O)N[C@@H](CO)C(N)=O)CSC3CC(=O)N(CCC(=O)N1)C3=O)C2=O (stereo partly specified) (HELM PEPTIDE1{H.[Aib].E.G.T.Y.T.N.D.V.T.E.Y.L.E.E.E.A.A.K.C.F.I.E.W.L.I.C.G.K.P.S.S.G.A.P.P.P.S.[am]}|CHEM1{[CCCCCCCCCCCCCCCC(=O)NCCCCCCNC(=O)C(CCCCNC(=O)CCN1C(=O)CC([*:1])C1=O)NC(=O)CCN1C(=O)CC([*:2])C1=O]}$PEPTIDE1,CHEM1,21:R3-1:R1|PEPTIDE1,CHEM1,28:R3-1:R2$$$V2.0)	0.15	15.2	Active	0.054	1.3	Active	Active	24.1
